Laboratory results as given in US11942223B1, “Systems and methods for rapid gene set enrichment analysis” (Immuneering Corporation, priority 2018, dated 2024).
One block for each compound: values may come before it.

Assays:
MDA-MB-231 cells [1] = test: Transwell ECM-based invasion assay, MDA-MB-231; format: cell-based, human; conditions: for inhibition of tumor cell invasion: MDA-MB-231, three GSK3 inhibitors, FIG. 7B
Method: To experimentally test the in silico predictions made by Cosiner™ and to pursue an inhibitor of metastasis, an in vitro ECM-based invasion assay was performed. An invasion assay is an in vitro proxy for the process of cells migrating and breaking through the extracellular matrix as would occur in the body during metastasis. All three GSK3A/GSK3B inhibitors tested were effective at inhibiting the invasion of the human triple negative breast cancer cell model MDA-MB-231 cells (FIG. 7B). […] Cell viability was determined at 10 μM by CellTiter-Glo® (CTG). […] At 10 μM doses, off-target effects can confound pharmacologic interpretations not to mention that it is unlikely to be a physiologically feasible dose for mice or humans. The viability at for each of the line as tested with each of these drugs was 76.4% for CHIR-99021 and 80.5% for 6-BIO 10 μM of drug by CTG.
(§1) Culture medium was removed when cells reached 80% confluence. Cultures were gently rinsed with PBS to remove all the remaining serum. Serum-free medium was added to the cultures and they were incubated overnight at 37° C. 5% CO2.
(§2) 786-O. NCI-H460, NCI-H226, MDA-MB-231 and DU-145 cells were tested in transwells with 3 μm pores. HCT-116, PC-3, MDA-MB-453 and COLO-205 cells were tested in transwells with 8 μm pores.
(§3) First, the Matrigel® was thawed in an ice bath in a refrigerator (4° C.) overnight. Matrigel® was then diluted into serum-free, cold cell culture media (1:8 dilution). 20 μL of diluted Matrigel®) was added into each well of BD Falcon™ Multiwell 96-well cell culture inserts. Transwell inserts were incubated at 37° C., for at least 4 to 5 hours for gelling. Before use, the transwells were rehydrated by adding 100 μL PBS to the insert and incubated at 37° C., in ambient air for 2 hours.
Cells were harvested using Trypsin and washed once with serum free medium. Cells were resuspended with serum-free medium. The 786-O cell density was adjusted to 2×10^5 cells/mL; the NCI-H460 and NCI-H226 cell density was adjusted to 5×10^6 cells/mL; the MDA-MB-231 and DU-145 cell density was adjusted to 1×10^6 cells/mL; the HCT-116 cell density was adjusted to 5×10^6 cells/mL; the PC-3 cell density to 1×10^6 cell/mL; the MDA-MB-453 cell density was adjusted to 5×10^5 cells/mL; and the COLO-205 cell density was adjusted to 2×10^6 cells/mL.
Cells were pre-treated with compounds, which were dissolved in DMSO and diluted to the desired concentration in culture medium. The pretreatment was performed in Ultra-low attachment multiwell plates. 90 μL cells and 10 μL compound solution were mixed in each well of the plate. The plate was covered with a lid and incubated for 60 minutes. 50 μL of cells was seeded onto each top insert, which was pre-coated with 1:8 diluted Matrigel®. 180 μL of warm (37° C.) culture medium containing 10% FBS was added to the lower chamber of the transwell plate. 200 μL serum-free medium and 20 μL of compound dilution was added to the indicated lower chamber as the negative control. The 96-Multiwell Insert system was transferred to the incubator for 16 hours at 37° C., and 5% CO2. Next, the insert was transferred to a new plate. The lower chambers were centrifuged at 3000 rpm for 5 minutes and then washed twice with PBS.
The insert was transferred back to the lower chamber and 200 μL of the DiTC12(3) fluorescent dye solution was added. The final concentration of DiIC12(3) was 5 μg/mL. Plates were incubated for 30 minutes at 37° C., and 5% CO2. The plates were then washed with PBS twice. The invaded/migrated cells were monitored by reading fluorescence at 530/590 nm on a PerkinElmer EnSpire™ plate reader.
Percent inhibition for compound was calculated using Formula 6.
The positive control was DMSO treated and had medium with 10% FBS (average of 3 wells per cell line) in receiver well. The negative control was DMSO treated with no FBS in the receiver well (average of 3 wells per cell line). […]

MDA-MB-231 cells [2] = test: CellTiter-Glo viability, MDA-MB-231; format: cell-based, human; conditions: MDA-MB-231, 10 μM of drug
Method: (§4) Viability was determined at the maximum drug concentration measured in a given experiment via CellTiter-Glo® (CTG) per manufacturers recommendations: https://www.promega.com/-/media/files/resources/protocols/technical-bulletins/0/celltiter-glo-luminescent-cell-viability-assay-protocol.pdf?la=en.

[3] = CellTiter-Glo viability, MDA-MB-231; format: cell-based, human; conditions: human, MDA-MB-231 cells; for viability at 10 µM: MDA-MB-231, 10 μM of drug
Method: as §4

[4] = system: PC-3 (prostate cancer) cells; test: Transwell invasion assay, PC-3; format: cell-based; conditions: PC-3, cell line panel, FIG. 9A
Method: as §1, §2, §3
(§5) Cells were harvested using Trypsin and washed once with serum free medium. Cells were resuspended with serum-free medium. […]
(§6) The insert was transferred back to the lower chamber and 200 μL of the DiTC12(3) fluorescent dye solution was added. […] The invaded/migrated cells were monitored by reading fluorescence at 530/590 nm on a PerkinElmer EnSpire™ plate reader.
(§7) Percent inhibition for compound was calculated using Formula 6. […]

[5] = system: DU-145 (prostate cancer) cells; test: Transwell invasion assay, DU-145; format: cell-based; conditions: DU-145, cell line panel, FIG. 9A
Method: as §1, §2, §3, §5, §6, §7

[6] = system: 786-O (renal cancer) cells; test: Transwell invasion assay, 786-O; format: cell-based; conditions: cell line panel, FIG. 9A
Method: as §1, §2, §3, §5, §6, §7

[7] = system: NCI-H226 (lung cancer) cells; test: Transwell invasion assay, NCI-H226; format: cell-based; conditions: NCI-H226, cell line panel, FIG. 9A
Method: as §1, §2, §3, §5, §6, §7

[8] = system: NCI-H460 (lung cancer) cells; test: Transwell invasion assay, NCI-H460; format: cell-based; conditions: NCI-H460, cell line panel, FIG. 9A
Method: as §1, §2, §3, §5, §6, §7

[9] = system: MDA-MB-453 (breast cancer) cells; test: Transwell invasion assay, MDA-MB-453; format: cell-based; conditions: MDA-MB-453, cell line panel, FIG. 9B; low baseline invasiveness
Method: as §1, §2, §3, §5, §6, §7

[10] = system: HCT-116 (colon cancer) cells; test: Transwell invasion assay, HCT-116; format: cell-based; conditions: HCT-116, cell line panel, FIG. 9B; low baseline invasiveness
Method: as §1, §2, §3, §5, §6, §7

[11] = system: COLO-205 (colon cancer) cells; test: Transwell invasion assay, COLO-205; format: cell-based; conditions: COLO-205, cell line panel, FIG. 9B
Method: as §1, §2, §3, §5, §6, §7

A549 (lung cancer) cells = test: Transwell invasion assay, A549; format: cell-based; conditions: A549, previous experiment, FIG. 9B
Method: as §1, §3
Cells were pre-treated with compounds, which were dissolved in DMSO and diluted to the desired concentration in culture medium. The pretreatment was performed in Ultra-low attachment multiwell plates. 90 μL cells and 10 μL compound solution were mixed in each well of the plate. The plate was covered with a lid and incubated for 60 minutes. […]
as §6, §7

[12] = CellTiter-Glo viability, PC-3; format: cell-based; conditions: human, PC-3 cells; PC3, 600 nM; read-out: cell viability by CellTiter-Glo
Method: as §4

[13] = CellTiter-Glo viability, DU-145; format: cell-based; conditions: human, DU-145 cells; DU-145, 600 nM; read-out: cell viability by CellTiter-Glo
Method: as §4

[14] = CellTiter-Glo viability, 786-O; format: cell-based; conditions: human, 786-O cells, 600 nM, assay threshold 80%, read-out: cell viability by CellTiter-Glo
Method: as §4

[15] = CellTiter-Glo viability, NCI-H226; format: cell-based; conditions: human, NCI-H226 cells; NCI-H226, 600 nM; read-out: cell viability by CellTiter-Glo
Method: as §4

[16] = CellTiter-Glo viability, NCI-H460; format: cell-based; conditions: human, NCI-H460 cells; NCI-H460, 600 nM; read-out: cell viability by CellTiter-Glo
Method: as §4

[17] = CellTiter-Glo viability, MDA-MB-453; format: cell-based; conditions: human, MDA-MB-453 cells; MDA-MB-453, 600 nM; read-out: cell viability by CellTiter-Glo
Method: as §4

[18] = CellTiter-Glo viability, HCT-116; format: cell-based; conditions: human, HCT-116 cells; HCT-166 (so in the source), 600 nM; read-out: cell viability by CellTiter-Glo
Method: as §4

[19] = CellTiter-Glo viability, COLO-205; format: cell-based; conditions: human, COLO-205 cells; COLO-205, 600 nM; read-out: cell viability by CellTiter-Glo
Method: as §4

[20] = CellTiter-Glo viability, A549; format: cell-based; conditions: human, A549 cells; A549, 600 nM; read-out: cell viability by CellTiter-Glo
Method: as §4

[21] = read-out: cell viability by CellTiter-Glo

Compound: O=C1Nc2cc(Br)ccc2/C1=C1/Nc2ccccc2/C1=N\O [6-BIO]
inhibition of tumor cell invasion (MDA-MB-231 cells [1]): inhibited tumor cell invasion but only at the higher dose levels tested (e.g., 1-10 μM)
cell viability by CellTiter-Glo (MDA-MB-231 cells [2]): 80.5%

Compound: Cc1c[nH]c(-c2cnc(NCCNc3ccc(C#N)cn3)nc2-c2ccc(Cl)cc2Cl)n1 [CHIR-99021]
inhibition of tumor cell invasion (MDA-MB-231 cells [1]): inhibited tumor cell invasion but only at the higher dose levels tested (e.g., 1-10 μM)
viability at 10 µM [3, 21]: 76.4%

IC50 (MDA-MB-231 cells [1]; Homo sapiens, MDA-MB-231, dose response FIG. 8, average of 6 wells, read-out: 50% inhibition of baseline invasion): ~5 nM
Compound: O=C1NC(=O)C(c2cnc3ccccn23)=C1c1cn2c3c(cc(F)cc13)CN(C(=O)N1CCCCC1)CC2 [LY-2090314]
inhibition of invasion (MDA-MB-231 cells [1]; MDA-MB-231, cell line panel, FIG. 9A, average of 6 wells): markedly inhibited
dose of maximal inhibition of tumor cell invasion (MDA-MB-231 cells [1]; MDA-MB-231, dose response FIG. 8, average of 6 wells): approximately 24 nM
inhibition of tumor cell invasion (MDA-MB-231 cells [1]): inhibited tumor cell invasion at all concentrations tested
viability at 0.6 µM ([3]; MDA-MB-231, 600 nM of drug, dose response experiment (FIG. 8), read-out: cell viability by CellTiter-Glo): 93.5%
viability at 0.6 µM ([3]; MDA-MB-231, 600 nM, cell line panel experiment (FIG. 9A)): 95.5%
viability at 10 µM [3, 21]: ~100%
inhibition of invasion [4]: markedly inhibited
inhibition of invasion [5]: markedly inhibited
inhibition of invasion [6]: markedly inhibited
inhibition of invasion [7]: markedly inhibited
inhibition of invasion [8]: markedly inhibited
inhibition of invasion [9]: did not significantly inhibit
inhibition of invasion [10]: did not significantly inhibit
inhibition of invasion [11]: did not significantly inhibit
inhibition of invasion (A549 (lung cancer) cells): did not significantly inhibit
viability at 0.6 µM [12]: ~100%
viability at 0.6 µM [13]: ~100%
viability at 0.6 µM [14]: 83%
viability at 0.6 µM [15]: ~100%
viability at 0.6 µM [16]: ~100%
viability at 0.6 µM [17]: ~100%
viability at 0.6 µM [18]: ~97.7%
viability at 0.6 µM [19]: ~100%
viability at 0.6 µM [20]: 99.3%
